This is an account of results in patent publication US8809306B2, “Combination andolast/glucocorticoids” (Rottapharm S.p.A., priority 2006, dated 2014).

Assay [1] relates to human B lymphocytes from allergic donors. Conditions: cited from earlier work.
Assay [2] relates to T lymphocytes (Th2) production of IL-5. Conditions: preliminary in-vivo data, atopic asthmatic patients; cited from earlier work.
Assay [3] concerns eosinophils in the bronchoalveolar lavage (BAL) fluids. As to the kind of experiment: Sephadex-induced eosinophilia: eosinophil counts in the BAL fluid.
Assay [4] concerns airway hyperresponsiveness. As to conditions: inhalation, 2 to 20 mg, mild-moderate asthmatic patients; AMP, exercise, UNDW, CAH; cited from earlier work.
Assay [5] has as its system airway hyperresponsiveness induced by Sephadex G100 particles. As to the kind of experiment: Sephadex G100-induced lung hyperresponsiveness in rats (bronchoconstriction by Ach). Conditions: G-100 rats.
The test system of assay [6] is airway response following specific antigen challenge. As to conditions: asthmatic patients; cited from earlier work.

As to `O=C(Nc1ccc(-c2nnn[nH]2)cc1)c1ccc(-c2nnn[nH]2)cc1` [Andolast, N-4-(5-tetrazolyl)-phenyl-4-(5-tetrazolyl)-benzamide], in assay [1], the “effect on IL-4 dependent IgE synthesis” value is “potent inhibitory effect”. Moreover, the “effect on Th2 production of IL-5” value in assay [2] is “inhibitory effect”. Also, the “counts of eosinophils in the BAL fluid” value in assay [3] (Andolast 3 mg/kg, Sephadex control 2.6×10^6) is 1.75×10^6. For the same compound, the “airway hyperresponsiveness to specific and non-specific bronchostimulation challenges” value in assay [4] is recorded as “prevents in a dose-dependent fashion”. The “Protective Effect (%)” value in assay [5] (Andolast 3 mg/kg i.m., calculated from Ach ED50) is on record as 33.3%. Further, the “Ach ED50” value in assay [5] (Andolast 3 mg/kg i.m., dose of Ach i.v. producing 50% response) worked out at 0.20 mg/kg. For the same compound, the “early and late airway response following specific antigen challenge” value in assay [6] was “completely prevents”.

With `C[C@]12C=CC(=O)C=C1CC[C@@H]1[C@@H]2[C@@H](O)C[C@@]2(C)[C@H]1CC[C@]2(O)C(=O)CO` [Prednisolone], the “counts of eosinophils in the BAL fluid” value in assay [3] (Prednisolone 1 mg/kg, Sephadex control 2.6×10^6, normal rats about 1×10^4) was 2×10^6. Further, the “eosinophilia in the BAL fluids, in words” value in assay [3] (Prednisolone 10 mg/kg) is “totally suppressed”. Also, the “Protective Effect (%)” value in assay [5] (Prednisolone 1 mg/kg orally) came out at 11.1%; in assay [5] (Prednisolone 10 mg/kg orally), 88.8%.
